Experimental data from patent US9284531B2, “Differentiation of human pluripotent stem cells into cells expressing mature hepatocyte markers by 2D and bioreactor culture” (Takara Bio Europe AB, priority 2009, dated 2016).

Assays:
CYP3A4 = assay: CYP P450 activity test in bioreactor cultures (midazolam to 1'OH midazolam); conditions: both bioreactors HepDiff-1 and HepDiff-2, days 40 and 47, 3 μM at start
Protocol: (§1) Bioreactor cultures that were treated with the hepatic differentiation protocol were tested or their ability to metabolize phenacetin, diclophenac and midazolam via the phase I cytochrome (CYP) P450 enzymes CYP1A2, CYP2C9 and CYP3A4, respectively. At days 40 and 47 after inoculation of the cells a CYP P450 activity test was performed according to the scheme:
(§2) For this purpose, fresh medium inflow and medium outflow was closed and a cocktail of the test substances was injected into the recirculating medium to get the following concentrations at the beginning of the test: 3 μM Midazolam, 9 μM Diclophenac and 26 μM Phenacetin. During the next 24 hours, the bioreactor was operated in recirculation mode (no fresh medium was added and only the medium recirculation pump recirculates the medium). Samples from the recirculation were taken before starting the experiment and after 1, 4, 8 and 24 hours and analyzed for the metabolites of the test substances by liquid chromatography/mass spectrometry (LC/MS). Analyses were performed at Astrazeneca AB, Gothenburg, Sweden. After the last sample was taken the bioreactor was flushed with fresh medium in single pass mode with two times the volume of the bioreactor and tubing system and then switched to the normal perfusion mode recirculation with fresh medium inflow). […]

CYP1A2 = assay: CYP P450 activity test in bioreactor cultures (phenacetin to acetaminophen); type: in vitro ADME, human; conditions: bioreactors HepDiff-1 and HepDiff-2, hESC-derived cells, 26 μM at start, 24 h recirculation, LC/MS
Protocol: as §1, §2

HFF = HFF feeder cell experiments in 2D cultures and bioreactors (activin A production, proliferation); type: cell-based, human
Protocol: The metabolic activity and differentiation of the cells inside the bioreactors were characterized on a daily basis by measuring soluble factors in the medium outflow and in the recirculating medium. The following parameters were measured using automated clinical chemistry analyzers (Roche Diagnostics, Heidelberg, Germany): α-fetoprotein (AFP), alkaline phosphatase (AP), alanine transaminase (ALT), aspartate transaminase (AST), beta-human chorionic gonadotropin (β-hCG), c-peptide, carcinoembryonic antigen (CEA), cytokeratin fragment 19 (Cyfra 21-1), erythropoetin, estradiol, follicle stimulating hormone (FSH), factors II-V-X-XIII, fibrinogen, gamma-glutamyltransferase (GGT), glucose, lactate, lactate dehydrogenase (LDH), luteinizing hormone, neuronspecific enolase (NSE), osmolality, osteocalcin, pseudocholinesterase (PCHE), prealbumin progesterone, prolactin, S-100, thyroid-stimulating hormone (TSH), tissue plasminogen activator (TPA), transferrin (for a detailed description of the measurement methods see Table 8 in appendix). Additionally glutamine, glutamate, glucose, lactate, ammonium, pH, sodium (Na+), potassium (K+) were measured with a BioProfile 100 Plus device (Nova Biomedical, Waltham, Mass., USA). Activin A, insulin and albumin were measured with enzyme-linked immunosorbent assays (ELISAs) following the manufacturer's recommendations (activin A using products DY338, DY999, DY994, DY995 from R&D Systems, Wiesbaden-Nordenstadt, Germany; insulin using an ELISA from Invitrogen; albumin using an ELISA from Albuwell, Exocell Inc., Philadelphia, Pa., USA). Urea was measured using a colorimetric determination kit (QuantiChrom, BioAssay Systems, Hayward, Calif., USA). Galactose and sorbitol concentrations were measured by enzymatic assays (Roche Diagnostics).
The pluripotency supporting activity of the HFF could be correlated with their production of activin A. To further examine the behaviour of the HFF feeder cells several experiments only with HFF were carried out in 2D cultures and in two bioreactors.
In one experiment, the bioreactor is inoculated with active HFF that will be cultured in medium supplemented with serum and bFGF to stimulate HFF proliferation. Increase of the cell number is monitored by the levels of glucose consumption and lactate production. When a sufficient cell number is reached culture medium is changed to hBS medium for conditioning. Optimal medium exchange rates have to be determined for example measuring activin A and glucose concentrations in the conditioned medium as quality control parameters. A low glucose level might indicate the demand for increasing the medium feed rate and a low activin A level might be a sign for insufficient conditioning unsuitable to promote hESC pluripotency.

Cc1ncc2n1-c1ccc(Cl)cc1C(c1ccccc1F)=NC2 [midazolam, Midazolam]
metabolism of midazolam (CYP3A4): no metabolism

CCOc1ccc(NC(C)=O)cc1 [phenacetin, Phenacetin]
metabolism of phenacetin by CYP1A1/1A2 (CYP1A2): Significant metabolism

basic fibroblast growth factor [bFGF]
mitogenic effect on HFF (HFF; bioreactor experiment HFF-2, medium supplemented with serum replacement): not observed | activin A production by HFF (HFF; medium containing serum replacer): stimulated | activin A production by HFF (HFF; medium supplemented with serum): did not stimulate | mitogenic effect on active HFF (HFF; medium supplemented with serum, 2D and bioreactor experiment HFF-1): strong mitogenic effect
